Source: US20250127728A1, “Constrained Ionizable Cationic Lipids and Lipid Nanoparticles” (CAPSTAN THERAPEUTICS, INC., priority 2023, published 2025)
Read-outs that look alike come from different tables or passages of the source. Blank lines part the entries; values can stand above or below the compound they belong to.

Tests used:
[1] = apparent or measured pKa of ionizable lipid in the lipid nanoparticle, TNS assay; assay type: physicochemical
Experimental: The apparent or measured pKa of ionizable lipid in the lipid nanoparticle was determined using 6-(p-toluidino)-2-naphthalenesulfonic acid sodium salt (TNS salt, Toronto Research Chemicals, Toronto, ON, Canada). Lipid nanoparticles were diluted in 1×Dulbecco's PBS to a concentration of 1 mM total lipids. TNS salt was prepared as a 1 mg/mL stock solution in DMSO and then further diluted using distilled water to a working solution of 60 μg/mL ([…]). Diluted lipid nanoparticle samples were further diluted to 90 μM total lipids in 165 μL of buffered solution containing 10 mM HEPES, 10 mM MES, 10 mM ammonium acetate, 130 mM NaCl, and final TNS concentration of 1.33 μg/mL (4 μM) with the pH ranging from 3.5 to 12.2. Following pipette mixing and incubation at room temperature in the dark for 15 min, fluorescence intensity was measured at room temperature in a BioTek Synergy H1 plate reader using excitation and emission wavelengths of 321 and 445 nm, respectively. The fluorescence signal was blank subtracted and plotted as a function of the pH, then analyzed using a nonlinear (Boltzmann) regression analysis with the apparent pKa determined as the pH giving rise to half maximal fluorescence intensity as calculated by the Henderson-Hasselbalch equation.

splenic T cells = assay: in vivo transfection with mCherry mRNA by CD5-targeted tLNP, splenic T cells; conditions: C57BL/6 mice; for transfection rate in spleen T cells: 10 μg mRNA tail vein, 24 hours
Experimental: (§1) To assess the ability of a constrained ionizable cationic lipids to facilitate in vivo transfection of T cells with mCherry mRNA (SEQ ID NO. 5), tLNP incorporating CICL-207, or for comparison, CICL-1, and conjugated to an anti-mouse CD5 antibody were prepared and administered to C57BL/6 mice. The tLNP comprised either CICL-207 or CICL-1, DSPC, cholesterol, either DMG-PEG(2000) or DSG-PEG(2000), and DSPE-PEG(2000)-maleimide in the proportions indicated in Table 7 (below) and an N/P ratio of 6. CICL-1 has the structure:
Briefly, to prepare the tLNP, N1-methylpseudouridine (m1ψ)-substituted mCherry mRNA was encapsulated in LNP using a self-assembly process in which an aqueous solution of mRNA at pH 3.5 was rapidly mixed with a solution of lipids dissolved in ethanol, then followed by stepwise phosphate and Tris buffer dilution and tangential flow filtration (TFF) purification. Then an anti-CD5 mAb was conjugated to the above LNP to generate tLNP. Purified rat anti-mouse CD5 antibody, clone 53-7.3 (BioLegend), was coupled to LNP via N-succinimidyl S-acetylthioacetate (SATA)-maleimide conjugation chemistry. Briefly, LNPs with DSPE-PEG(2000)-maleimide incorporated were formulated and stored at 4° C. on the day of conjugation. The antibody was modified with SATA (Sigma-Aldrich) to introduce sulfhydryl groups at accessible lysine residues allowing conjugation to maleimide. SATA was deprotected using 0.5 M hydroxylamine followed by removal of the unreacted components by G-25 Sephadex Quick Spin Protein columns (Roche Applied Science, Indianapolis, IN). The reactive sulfhydryl group on the antibody was then conjugated to maleimide moieties on the LNPs using thioether conjugation chemistry. Purification was performed using Sepharose CL-4B gel filtration columns (Sigma-Aldrich). tLNPs (LNPs conjugated with a targeting antibody) were frozen at −80° C.
The mice were administered tLNPs containing 10 μg of mRNA by tail vein injection and tissue was harvested 24 hours later. […] These same trends have been observed with tLNP comprising CICL-1 as the ionizable lipid (data not shown). The tLNP comprising 58% ionizable cationic lipid had similarly low transfection rates (<4%) for CD45^− liver cells (hepatocytes)(FIG. 1B). […]

[2] = tested on: liver Kupffer cells (CD45+/CD11+ liver cells); assay: in vivo transfection with mCherry mRNA by CD5-targeted tLNP, liver Kupffer cells; conditions: C57BL/6 mice, 10 μg mRNA tail vein, 24 hours
Experimental: as §1
Briefly, to prepare the tLNP, N1-methylpseudouridine (m1ψ)-substituted mCherry mRNA was encapsulated in LNP using a self-assembly process in which an aqueous solution of mRNA at pH 3.5 was rapidly mixed with a solution of lipids dissolved in ethanol, then followed by stepwise phosphate and Tris buffer dilution and tangential flow filtration (TFF) purification. Then an anti-CD5 mAb was conjugated to the above LNP to generate tLNP. […]
Further ionizable cationic lipids according to Formula M2 were incorporated into tLNP and the ability of the tLNP to transfect cells in vivo assessed essentially as described in the preceding Example. Their physicochemical properties as determined in various experiments are compiled in Table 10.

[3] = apparent or measured pKa of ionizable lipid in the lipid nanoparticle, TNS assay; assay type: physicochemical; conditions: predicted from c-pKa and measured pKa of CICL-207
[4] = Table 11, in tLNP formulation, read-out: Measured pKa
[5] = read-out: measured pKa (in tLNP formulation)

Structure (SMILES): CCCCCCCCC(=O)OCC(COC(=O)CCCCCCCC)CC(=O)O[C@H]1C=C[C@H](OC(=O)CC(COC(=O)CCCCCCCC)COC(=O)CCCCCCCC)CN(C(=O)OCCN(C)C)C1 (racemic) [CICL-218, (((Rel-(3S,6S)-1-((2-(dimethylamino)ethoxy)carbonyl)-2,3,6,7-tetrahydro-1H-azepine-3,6-diyl)bis(oxy))bis(2-oxoethane-2,1-diyl))bis(propane-2,1,3-triyl) tetranonanoate]
pKa [1, 4]: 6.07
pKa [1, 5]: 6.11
transfection rate in spleen T cells (splenic T cells): ca. 20%

Structure (SMILES): CCCCCCCCC(=O)OCC(COC(=O)CCCCCCCC)CC(=O)OCCN(CCOC(=O)CC(COC(=O)CCCCCCCC)COC(=O)CCCCCCCC)C(=O)OCCN(C)C [CICL-1, reference compound]
transfection rate for liver Kupffer cells (CD45+/CD11+) [2]: ~6%

Structure (SMILES): CCCCCCCCC(=O)OCC(COC(=O)CCCCCCCC)CC(=O)OC[C@@H]1C[C@@H](OC(=O)CC(COC(=O)CCCCCCCC)COC(=O)CCCCCCCC)CN1C(=O)OCCN(CCC)CCC [CICL-207-109]
measured pKa in formulation (prediction) [3]: close to the desired pKa=6-7 midpoint

Structure (SMILES): CCCCCCCCC(=O)OCC(COC(=O)CCCCCCCC)CC(=O)OC[C@@H]1C[C@@H](OC(=O)CC(COC(=O)CCCCCCCC)COC(=O)CCCCCCCC)CN1C(=O)OCCN1CCCCC1 [CICL-207-119]
measured pKa in formulation (prediction) [3]: close to the desired pKa=6-7 midpoint

Structure (SMILES): CCCCCCCCC(=O)OCC(COC(=O)CCCCCCCC)CC(=O)OC[C@@H]1C[C@@H](OC(=O)CC(COC(=O)CCCCCCCC)COC(=O)CCCCCCCC)CN1C(=O)OCCCN1CCC(O)CC1 [CICL-207-122]
measured pKa in formulation (prediction) [3]: close to the desired pKa=6-7 midpoint

Structure (SMILES): CCCCCCCCC(=O)OCC(COC(=O)CCCCCCCC)CC(=O)OC[C@@H]1C[C@@H](OC(=O)CC(COC(=O)CCCCCCCC)COC(=O)CCCCCCCC)CN1C(=O)OCCN(C)c1ccncc1 [CICL-207-130]
measured pKa in formulation (prediction) [3]: close to the desired pKa=6-7 midpoint

Structure (SMILES): CCCCCCCCC(=O)OCC(COC(=O)CCCCCCCC)CC(=O)OC[C@@H]1C[C@H](OC(=O)CC(COC(=O)CCCCCCCC)COC(=O)CCCCCCCC)CN1C(=O)OCCN(C)C [CICL-224, 2-(2-(((2S,4S)-1-((2-(dimethylamino)ethoxy)carbonyl)-4-((4-(nonanoyloxy)-3-((nonanoyloxy)methyl)butanoyl)oxy)pyrrolidin-2-yl)methoxy)-2-oxoethyl)propane-1,3-diyl dinonanoate]
pKa [1, 4]: 6.98
pKa [1, 5]: ~7
transfection rate in spleen T cells (splenic T cells): below 40%

Structure (SMILES): CCCCCCCCC(=O)OCC(COC(=O)CCCCCCCC)CC(=O)OC[C@H]1C[C@H](OC(=O)CC(COC(=O)CCCCCCCC)COC(=O)CCCCCCCC)CN1C(=O)OCCN(C)C [CICL-225, 2-(2-(((2R,4S)-1-((2-(dimethylamino)ethoxy)carbonyl)-4-((4-(nonanoyloxy)-3-((nonanoyloxy)methyl)butanoyl)oxy)pyrrolidin-2-yl)methoxy)-2-oxoethyl)propane-1,3-diyl dinonanoate]
effect of ionizable cationic lipid content (50%, 58%, 62%, 65%) on transfection rate (splenic T cells; in words): greater in both types of liver cells

Structure (SMILES): CCCCCCCCC(=O)OCC(COC(=O)CCCCCCCC)CC(=O)O[C@@H]1C[C@H](OC(=O)CC(COC(=O)CCCCCCCC)COC(=O)CCCCCCCC)CN(C(=O)OCCN(C)C)C1 [CICL-238, (((Rel-(3R,5S)-1-((2-(dimethylamino)ethoxy)carbonyl)piperidine-3,5-diyl)bis(oxy))bis(2-oxoethane-2,1-diyl))bis(propane-2,1,3-triyl) tetranonanoate]
pKa [1, 5]: 7.09
performance of tLNP: transfection rate and expression level (MESF) (splenic T cells; in words): 3 of the 4 poorest performing tLNP

Second part, led by results:

measured pKa (in tLNP formulation) [1]: fell outside the range of 6 to 7
Structure (SMILES): CCCCCCCCC(=O)OCC(COC(=O)CCCCCCCC)CC(=O)O[C@H]1CN(C(=O)OCCN(C)C)C[C@H]1OC(=O)CC(COC(=O)CCCCCCCC)COC(=O)CCCCCCCC [CICL-216, (((Rel-(3S,4R)-1-((2-(dimethylamino)ethoxy)carbonyl)pyrrolidine-3,4-diyl)bis(oxy))bis(2-oxoethane-2,1-diyl))bis(propane-2,1,3-triyl) tetranonanoate]
performance of tLNP: transfection rate and expression level (MESF) (splenic T cells; in words): 3 of the 4 poorest performing tLNP

measured pKa (in tLNP formulation) [1]: fell outside the range of 6 to 7
Structure (SMILES): CCCCCCCCC(=O)OCC(COC(=O)CCCCCCCC)CC(=O)OC[C@@H]1C[C@@H](OC(=O)CC(COC(=O)CCCCCCCC)COC(=O)CCCCCCCC)CN1C(=O)SCCN(C)C [CICL-217, 2-(2-(((2S,4R)-1-(((2-(dimethylamino)ethyl)thio)carbonyl)-4-((4-(nonanoyloxy)-3-((nonanoyloxy)methyl)butanoyl)oxy)pyrrolidin-2-yl)methoxy)-2-oxoethyl)propane-1,3-diyl dinonanoate]
performance of tLNP: transfection rate and expression level (MESF) (splenic T cells; in words): 3 of the 4 poorest performing tLNP

pKa [1, 4]: 6.25
pKa [1, 5]: 6.25
Structure (SMILES): CCCCCCCCC(=O)OCC(COC(=O)CCCCCCCC)CC(=O)OC[C@@H]1C[C@H](OC(=O)CC(COC(=O)CCCCCCCC)COC(=O)CCCCCCCC)CN1C(=O)N1CCN(C)CC1 [CICL-239, 2-(2-(((2S,4S)-1-(4-methylpiperazine-1-carbonyl)-4-((4-(nonanoyloxy)-3-((nonanoyloxy)methyl)butanoyl)oxy)pyrrolidin-2-yl)methoxy)-2-oxoethyl)propane-1,3-diyl dinonanoate]
